Test results published in ChEMBL document CHEMBL1201862, “PubChem BioAssay data set” (2004).
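Test compounds were applied to cells in 96-well plates for 48 hours at 5 doses. The concentration for 50% growth inhibition is given as GI50.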 Calls of active or inactive are those of the source. Rule as the data show it: active = GI50 up to about 1.1 µM and inactive = higher.

Tests used:
Experiment in all cases: DTP human tumour cell line panel, 48 h
[1] = tested on: 786-0
[2] = tested on: A498
[3] = tested on: A549
[4] = tested on: ACHN
[5] = tested on: BT-549
[6] = tested on: CAKI-1
[7] = tested on: CCRF-CEM
[8] = tested on: COLO 205
[9] = tested on: DU-145
[10] = tested on: EKVX
[11] = tested on: HCC 2998
[12] = tested on: HCT-116
[13] = tested on: HCT-15
[14] = tested on: HL-60
[15] = tested on: HOP-62
[16] = tested on: HOP-92
[17] = tested on: HT-29
[18] = tested on: Hs-578T
[19] = tested on: IGROV-1
[20] = tested on: K562
[21] = tested on: KM12
[22] = tested on: LOX IMVI
[23] = tested on: M14
[24] = tested on: MCF7
[25] = tested on: MDA-MB-231
[26] = tested on: MDA-MB-435
[27] = tested on: MDA-N
[28] = tested on: MOLT-4
[29] = tested on: Malme-3M
[30] = tested on: NCI-H226
[31] = tested on: NCI-H23
[32] = tested on: NCI-H460
[33] = tested on: NCI/ADR-RES
[34] = tested on: OVCAR-3
[35] = tested on: OVCAR-4
[36] = tested on: OVCAR-5
[37] = tested on: OVCAR-8
[38] = tested on: PC-3
[39] = tested on: RPMI-8226
[40] = tested on: RXF 393
[41] = tested on: SF-268
[42] = tested on: SF-295
[43] = tested on: SF-539
[44] = tested on: SK-MEL-28
[45] = tested on: SK-MEL-2
[46] = tested on: SK-MEL-5
[47] = tested on: SK-OV-3
[48] = tested on: SN12C
[49] = tested on: SNB-19
[50] = tested on: SNB-75
[51] = tested on: SR
[52] = tested on: SW-620
[53] = tested on: T47D
[54] = tested on: TK-10
[55] = tested on: U-251
[56] = tested on: UACC-257
[57] = tested on: UACC-62
[58] = tested on: UO-31
[59] = tested on: NCI-H522

## CN(C)CC1CCC/C(=C\c2ccc(OC(=O)/C=C/c3ccccc3)cc2)C1=O (stereo not given)
[1]
  GI50: 0.776 µM (active)
[2]
  GI50: 7.28 µM (inactive)
[3]
  GI50: 2.75 µM (inactive)
[4]
  GI50: 2.51 µM (inactive)
[5]
  GI50: 2.11 µM (inactive)
[6]
  GI50: 1.82 µM (inactive)
[7]
  GI50: 0.265 µM (active)
[8]
  GI50: 1.99 µM (inactive)
[9]
  GI50: 2.47 µM (inactive)
[10]
  GI50: 2.18 µM (inactive)
[11]
  GI50: 10.5 µM (inactive)
[12]
  GI50: 1.34 µM (inactive)
[13]
  GI50: 1.56 µM
[14]
  GI50: 1.85 µM (inactive)
[15]
  GI50: 3.48 µM (inactive)
[16]
  GI50: 2.22 µM (inactive)
[17]
  GI50: 1.87 µM (inactive)
[18]
  GI50: 3.28 µM (inactive)
[19]
  GI50: 3.85 µM (inactive)
[20]
  GI50: 3.06 µM (inactive)
[21]
  GI50: 1.28 µM (inactive)
[22]
  GI50: 0.538 µM (active)
[23]
  GI50: 2.36 µM (inactive)
[24]
  GI50: 0.208 µM (active)
[25]
  GI50: 2.73 µM (inactive)
[26]
  GI50: 2.59 µM (inactive)
[27]
  GI50: 2.52 µM (inactive)
[28]
  GI50: 1.3 µM (inactive)
[29]
  GI50: 2.2 µM (inactive)
[30]
  GI50: 2.96 µM (inactive)
[31]
  GI50: 1.91 µM (inactive)
[32]
  GI50: 4.88 µM (inactive)
[33]
  GI50: 1.94 µM (inactive)
[34]
  GI50: 1.97 µM (inactive)
[35]
  GI50: 2.35 µM (inactive)
[36]
  GI50: 2.45 µM (inactive)
[37]
  GI50: 2 µM (inactive)
[38]
  GI50: 4.74 µM (inactive)
[39]
  GI50: 0.656 µM (active)
[40]
  GI50: 1.93 µM (inactive)
[41]
  GI50: 3.37 µM (inactive)
[42]
  GI50: 3.56 µM (inactive)
[43]
  GI50: 1.77 µM (inactive)
[44]
  GI50: 2.65 µM (inactive)
[45]
  GI50: 3.52 µM (inactive)
[46]
  GI50: 3.64 µM (inactive)
[47]
  GI50: 24.2 µM (inactive)
[48]
  GI50: 2.01 µM (inactive)
[49]
  GI50: 5.35 µM (inactive)
[50]
  GI50: 6.04 µM (inactive)
[51]
  GI50: 0.796 µM (active)
[52]
  GI50: 1.95 µM (inactive)
[53]
  GI50: 1.06 µM (active)
[54]
  GI50: 1.73 µM (inactive)
[55]
  GI50: 1.72 µM (inactive)
[56]
  GI50: 3.48 µM (inactive)
[57]
  GI50: 3.34 µM (inactive)
[58]
  GI50: 1.83 µM (inactive)

## CN(C)C/C=C(/c1ccc(Br)cc1)c1cccnc1
[1]
  GI50: 94 µM (inactive)
[2]
  GI50: 20.3 µM (inactive)
[3]
  GI50: 81.8 µM (inactive)
[4]
  GI50: > 100 µM (inactive)
[5]
  GI50: 79.4 µM (inactive)
[6]
  GI50: 92.9 µM (inactive)
[8]
  GI50: 16.6 µM (inactive)
[9]
  GI50: > 100 µM (inactive)
[10]
  GI50: > 100 µM (inactive)
[11]
  GI50: 15.7 µM (inactive)
[12]
  GI50: 71 µM (inactive)
[13]
  GI50: > 100 µM
[14]
  GI50: 0.0165 µM (active)
[15]
  GI50: 45 µM (inactive)
[16]
  GI50: 64.6 µM (inactive)
[17]
  GI50: 78.5 µM (inactive)
[18]
  GI50: 48 µM (inactive)
[19]
  GI50: > 100 µM (inactive)
[20]
  GI50: 32.2 µM (inactive)
[21]
  GI50: 74.1 µM (inactive)
[23]
  GI50: 20.2 µM (inactive)
[24]
  GI50: 63.8 µM (inactive)
[25]
  GI50: 32.7 µM (inactive)
[26]
  GI50: 32.9 µM (inactive)
[27]
  GI50: 38.3 µM (inactive)
[28]
  GI50: 47.9 µM (inactive)
[29]
  GI50: 20.2 µM (inactive)
[30]
  GI50: > 100 µM (inactive)
[31]
  GI50: > 100 µM (inactive)
[32]
  GI50: 81.3 µM (inactive)
[59]
  GI50: 56.4 µM (inactive)
[33]
  GI50: 69.5 µM (inactive)
[34]
  GI50: > 100 µM (inactive)
[35]
  GI50: > 100 µM (inactive)
[36]
  GI50: > 100 µM (inactive)
[37]
  GI50: > 100 µM (inactive)
[38]
  GI50: > 100 µM (inactive)
[39]
  GI50: 34.7 µM (inactive)
[40]
  GI50: 30.6 µM (inactive)
[41]
  GI50: 65.8 µM (inactive)
[42]
  GI50: 22.2 µM (inactive)
[43]
  GI50: > 100 µM (inactive)
[44]
  GI50: 17.9 µM (inactive)
[45]
  GI50: 19.8 µM (inactive)
[46]
  GI50: 19.7 µM (inactive)
[47]
  GI50: 71.1 µM (inactive)
[48]
  GI50: > 100 µM (inactive)
[49]
  GI50: > 100 µM (inactive)
[50]
  GI50: 51.5 µM (inactive)
[51]
  GI50: 34.8 µM (inactive)
[52]
  GI50: > 100 µM (inactive)
[53]
  GI50: 58.7 µM (inactive)
[54]
  GI50: 65.9 µM (inactive)
[55]
  GI50: 98.4 µM (inactive)
[56]
  GI50: 18.2 µM (inactive)
[57]
  GI50: 19.6 µM (inactive)
[58]
  GI50: 42.8 µM (inactive)
